In patent US20230085307A1, “PYRIDAZINONE COMPOUND AND HERBICIDE” (NISSAN CHEMICAL CORPORATION, priority 2019, published 2023):

Experiments:
[1] = tested on: barnyard grass; assay: Test Example 3: herbicidal effect by foliage application, Wagner pot (Table 18, symbol H); format: in vivo, barnyard grass (Echinochloa crus-galli); conditions: 320 g/ha
Summary of the method: (§1)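 Plants were sown in alluvial soil held under 0.1–0.5 cm standing water and grown 14 days in a greenhouse at 25–30 °C. An emulsifiable formulation, water-diluted to the set dose, was then sprayed onto the foliage, and effects were scored three weeks later using previously defined criteria.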

[2] = tested on: Chinese sprangletop; assay: Test Example 3: herbicidal effect by foliage application, Wagner pot (Table 18, symbol D); format: in vivo, chinese sprangletop (Leptochloa chinensis); conditions: 320 g/ha
Summary of the method: as §1

[3] = tested on: rice flat sedge; assay: Test Example 3: herbicidal effect by foliage application, Wagner pot (Table 18, symbol E); format: in vivo, rice flat sedge (Cyperus iria); conditions: 320 g/ha
Summary of the method: as §1

[4] = tested on: southern crabgrass; assay: Test Example 4: herbicidal effect by soil treatment (Table 19, symbol F); format: in vivo, southern crabgrass (Digitaria ciliaris); conditions: AAH 320 g/ha
Summary of the method: (§2)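 Emulsion of test compound, water-diluted to predetermined amount, sprayed on soil after sowing (seed depth ~1.5 cm, sterilized diluvial soil). Greenhouse, 25–30° C. Effect graded at three weeks post-spray.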

[5] = tested on: green foxtail; assay: Test Example 4: herbicidal effect by soil treatment (Table 19, symbol G); format: in vivo, green foxtail (Setaria viridis); conditions: AAH 320 g/ha
Summary of the method: as §2

[6] = tested on: barnyard grass; assay: Test Example 4: herbicidal effect by soil treatment (Table 19, symbol H); format: in vivo, barnyard grass (Echinochloa crus-galli); conditions: AAH 320 g/ha
Summary of the method: as §2

[7] = tested on: wild oat; assay: Test Example 4: herbicidal effect by soil treatment (Table 19, symbol I); format: in vivo, wild oat (Avena fatua); conditions: AAH 320 g/ha
Summary of the method: as §2

[8] = tested on: Italian ryegrass; assay: Test Example 4: herbicidal effect by soil treatment (Table 19, symbol K); format: in vivo, Italian ryegrass (Lolium multiflorum); conditions: AAH 320 g/ha
Summary of the method: as §2

[9] = tested on: windgrass; assay: Test Example 4: herbicidal effect by soil treatment (Table 19, symbol L); format: in vivo, windgrass (Apera spica-venti); conditions: AAH 320 g/ha
Summary of the method: as §2

[10] = tested on: velvetleaf; assay: Test Example 4: herbicidal effect by soil treatment (Table 19, symbol M); format: in vivo, velvetleaf (Abutilon theophrasti); conditions: AAH 320 g/ha
Summary of the method: as §2

[11] = tested on: redroot pigweed; assay: Test Example 4: herbicidal effect by soil treatment (Table 19, symbol N); format: in vivo, redroot pigweed (Amaranthus retroflexus); conditions: AAH 320 g/ha
Summary of the method: as §2

[12] = tested on: lambsquarters; assay: Test Example 4: herbicidal effect by soil treatment (Table 19, symbol O); format: in vivo, lambsquarters (Chenopodium album); conditions: AAH 320 g/ha
Summary of the method: as §2

[13] = tested on: chickweed; assay: Test Example 4: herbicidal effect by soil treatment (Table 19, symbol P); format: in vivo, common chickweed (Stellaria media); conditions: AAH 320 g/ha
Summary of the method: as §2

[14] = tested on: persian speedwell; assay: Test Example 4: herbicidal effect by soil treatment (Table 19, symbol R); format: in vivo, Persian speedwell (Veronica persica); conditions: AAH 320 g/ha
Summary of the method: as §2

[15] = tested on: southern crabgrass; assay: Test Example 5: herbicidal effect by foliage application, plastic box (Table 20, symbol F); format: in vivo, southern crabgrass (Digitaria ciliaris); conditions: foliage application, AAH 320 g/ha, three weeks after application
Summary of the method: (§3)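 Post-emergence foliar test in sterilized diluvial soil. Compound applied as water-diluted emulsion at a predetermined rate to 14-day-old plants; evaluation at three weeks.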

[16] = tested on: green foxtail; assay: Test Example 5: herbicidal effect by foliage application, plastic box (Table 20, symbol G); format: in vivo, green foxtail (Setaria viridis); conditions: foliage application, AAH 320 g/ha, three weeks after application
Summary of the method: as §3

[17] = tested on: barnyard grass; assay: Test Example 5: herbicidal effect by foliage application, plastic box (Table 20, symbol H); format: in vivo, barnyard grass (Echinochloa crus-galli); conditions: foliage application, AAH 320 g/ha, three weeks after application
Summary of the method: as §3

[18] = tested on: wild oat; assay: Test Example 5: herbicidal effect by foliage application, plastic box (Table 20, symbol I); format: in vivo, wild oat (Avena fatua); conditions: foliage application, AAH 320 g/ha, three weeks after application
Summary of the method: as §3

[19] = tested on: blackgrass; assay: Test Example 5: herbicidal effect by foliage application, plastic box (Table 20, symbol J); format: in vivo, blackgrass (Alopecurus myosuroides); conditions: foliage application, AAH 320 g/ha, three weeks after application
Summary of the method: as §3

[20] = tested on: Italian ryegrass; assay: Test Example 5: herbicidal effect by foliage application, plastic box (Table 20, symbol K); format: in vivo, Italian ryegrass (Lolium multiflorum); conditions: foliage application, AAH 320 g/ha, three weeks after application
Summary of the method: as §3

[21] = tested on: windgrass; assay: Test Example 5: herbicidal effect by foliage application, plastic box (Table 20, symbol L); format: in vivo, windgrass (Apera spica-venti); conditions: foliage application, AAH 320 g/ha, three weeks after application
Summary of the method: as §3

[22] = tested on: velvetleaf; assay: Test Example 5: herbicidal effect by foliage application, plastic box (Table 20, symbol M); format: in vivo, velvetleaf (Abutilon theophrasti); conditions: foliage application, AAH 320 g/ha, three weeks after application
Summary of the method: as §3

[23] = tested on: redroot pigweed; assay: Test Example 5: herbicidal effect by foliage application, plastic box (Table 20, symbol N); format: in vivo, redroot pigweed (Amaranthus retroflexus); conditions: foliage application, AAH 320 g/ha, three weeks after application
Summary of the method: as §3

[24] = tested on: lambsquarters; assay: Test Example 5: herbicidal effect by foliage application, plastic box (Table 20, symbol O); format: in vivo, lambsquarters (Chenopodium album); conditions: foliage application, AAH 320 g/ha, three weeks after application
Summary of the method: as §3

[25] = tested on: chickweed; assay: Test Example 5: herbicidal effect by foliage application, plastic box (Table 20, symbol P); format: in vivo, common chickweed (Stellaria media); conditions: foliage application, AAH 320 g/ha, three weeks after application
Summary of the method: as §3

[26] = tested on: false cleavers; assay: Test Example 5: herbicidal effect by foliage application, plastic box (Table 20, symbol Q); format: in vivo, false cleavers (Galium spurium); conditions: foliage application, AAH 320 g/ha, three weeks after application
Summary of the method: as §3

[27] = tested on: persian speedwell; assay: Test Example 5: herbicidal effect by foliage application, plastic box (Table 20, symbol R); format: in vivo, Persian speedwell (Veronica persica); conditions: foliage application, AAH 320 g/ha, three weeks after application
Summary of the method: as §3

## CCCC(=O)Oc1c(OC)nn(C)c(=O)c1-c1c(-c2cc(F)c(F)c(F)c2)sc2ccccc12 [1-187]
[1]
  herbicidal effect on H (barnyard grass), rating 0-5: 0 (Herbicidal rate of 5% or less (almost no effect))
[2]
  herbicidal effect on D (Chinese sprangletop), rating 0-5: 0 (Herbicidal rate of 5% or less (almost no effect))
[3]
  herbicidal effect on E (rice flat sedge), rating 0-5: 3 (Herbicidal rate of 40% or more and less than 70%)
[4]
  F: southern crabgrass, herbicidal effect rating: 0 (Herbicidal rate of 5% or less (almost no effect))
[5]
  G: green foxtail, herbicidal effect rating: 0 (Herbicidal rate of 5% or less (almost no effect))
[6]
  H: barnyard grass, herbicidal effect rating: 0 (Herbicidal rate of 5% or less (almost no effect))
[7]
  I: wild oat, herbicidal effect rating: 0 (Herbicidal rate of 5% or less (almost no effect))
[8]
  K: Italian ryegrass, herbicidal effect rating: 0 (Herbicidal rate of 5% or less (almost no effect))
[9]
  L: windgrass, herbicidal effect rating: 0 (Herbicidal rate of 5% or less (almost no effect))
[10]
  M: velvetleaf, herbicidal effect rating: 0 (Herbicidal rate of 5% or less (almost no effect))
[11]
  N: redroot pigweed, herbicidal effect rating: 0 (Herbicidal rate of 5% or less (almost no effect))
[12]
  O: lambsquarters, herbicidal effect rating: 4 (Herbicidal rate of 70% or more and less than 90%)
[13]
  P: chickweed, herbicidal effect rating: 5 (Herbicidal rate of 90% or more (almost completely withered))
[14]
  R: persian speedwell, herbicidal effect rating: 4 (Herbicidal rate of 70% or more and less than 90%)
[15]
  F: southern crabgrass, herbicidal effect: 0 (Herbicidal rate of 5% or less (almost no effect))
[16]
  G: green foxtail, herbicidal effect: 0 (Herbicidal rate of 5% or less (almost no effect))
[17]
  H: barnyard grass, herbicidal effect: 0 (Herbicidal rate of 5% or less (almost no effect))
[18]
  I: wild oat, herbicidal effect: 0 (Herbicidal rate of 5% or less (almost no effect))
[19]
  J: blackgrass, herbicidal effect: 0 (Herbicidal rate of 5% or less (almost no effect))
[20]
  K: Italian ryegrass, herbicidal effect: 0 (Herbicidal rate of 5% or less (almost no effect))
[21]
  L: windgrass, herbicidal effect: 0 (Herbicidal rate of 5% or less (almost no effect))
[22]
  M: velvetleaf, herbicidal effect: 4 (Herbicidal rate of 70% or more and less than 90%)
[23]
  N: redroot pigweed, herbicidal effect: 4 (Herbicidal rate of 70% or more and less than 90%)
[24]
  O: lambsquarters, herbicidal effect: 5 (Herbicidal rate of 90% or more (almost completely withered))
[25]
  P: chickweed, herbicidal effect: 3 (Herbicidal rate of 40% or more and less than 70%)
[26]
  Q: false cleavers, herbicidal effect: 0 (Herbicidal rate of 5% or less (almost no effect))
[27]
  R: persian speedwell, herbicidal effect: 5 (Herbicidal rate of 90% or more (almost completely withered))
